Laboratory results as given in patent US6028195A, “Piperazine derivatives and process for the preparation thereof” (Samjin Pharmaceutical Co., Ltd., priority 1996, dated 2000).
Values after ≈ are worked out from the molar mass of the structure shown. Read-outs that look alike come from different tables or passages of the source.

Tests used:
Assay type in all cases: cell-based
[1] = tested on: XF 498 (human CNS); assay: SRB assay, in vitro antitumor effect against XF 498; details: Homo sapiens, XF498; XF-498, 48 hours; read-out: ED50 (the source's name)
Procedure: (§1) In vitro antitumor effect against human tumor cell lines.
(§2) b. 5×10^3 ~2×10^4 cells were added into each well of 96-well plate and cultured in 5% CO2 incubator, at 37° C., for 24 hours.
(§3) c. Each sample drug was dissolved in a little DMSO and diluted with the used medium to a prescribed concentration for experiments, wherein the final concentration of DMSO was controlled below 0.5%.
(§4) d. Medium of each well cultured for 24 hours as above b. was removed by aspiration. Each 200 μl of drug samples prepared in c. was added into each well and the wells were cultured for 48 hours. Tz(time zero) plates were collected at the point of time drugs were added.
(§5) e. According to the SRB assay method, cell fixing with TCA, staining with 0.4% SRB solution, washing with 1% acetic acid and elution of dye with 10 mM Tris solution were carried out on Tz plates and culture-ended plates, and then, OD values were measured at 520 nm.
(§6) a. Time zero(Tz) value was determined with measuring the SRB protein value at the point of time drugs were added.
(§7) b. Control value(C) was determined with the OD value of an well untreated with drug.
(§8) c. Drug-treated test value(T) was determined with the OD value of drug-treated well.
(§9) d. Effects of drugs were estimated with growth stimulation, net growth inhibition, net killing etc. calculated from Tz, C and T.
(§10) e. If T≥Tz, cellular response function was calculated by 100×(T-Tz)/(C-Tz), and if T<Tz, by 100×(T-Tz)/Tz.

[2] = tested on: SKOV-3 (human ovarian); assay: SRB assay, in vitro antitumor effect against SKOV-3; details: Homo sapiens; SK-OV-3, 48 hours; read-out: ED50 (the source's name)
Procedure: as §1, §2, §3, §4, §5, §6, §7, §8, §9, §10

[3] = tested on: SKMEL-2 (human melanoma); assay: SRB assay, in vitro antitumor effect against SKMEL-2; details: Homo sapiens
Procedure: as §1, §2, §3, §4, §5, §6, §7, §8, §9, §10

[4] = tested on: A549 (human non-small lung cell); assay: SRB assay, in vitro antitumor effect against A549; details: Homo sapiens; A549, 48 hours; read-out: ED50 (the source's name)
Procedure: as §1, §2, §3, §4, §5, §6, §7, §8, §9, §10

[5] = tested on: HCT-15 (human colon); assay: SRB assay, in vitro antitumor effect against HCT-15; details: Homo sapiens; HCT 15, 48 hours; read-out: ED50 (the source's name)
Procedure: as §1, §2, §3, §4, §5, §6, §7, §8, §9, §10

[6] = SK-MEL-2, 48 hours, read-out: ED50 (the source's name)

Row | Compound | IC50 [1] | IC50 [2] | IC50 [3, 6] | IC50 [4] | IC50 [5] | IC50 ([3]; SK-MEL-2, 48 h, read-out: ED50)
1 | COc1nc2ccccc2cc1NC(=S)N1CCN(c2cc(Cl)cc(Cl)c2)CC1 [Example 112, 1-[(2-Methoxyquinolin-3-yl)aminothiocarbonyl]-4-(3,5-dichlorophenyl)piperazine] | 2070 ng/mL (≈ 4630 nM) | 6430 ng/mL (≈ 14400 nM) | 220 ng/mL (≈ 492 nM) | 560 ng/mL (≈ 1250 nM) | 610 ng/mL (≈ 1360 nM) | –
2 | COc1cc(OC)cc(N2CCN(C(=O)N(C)c3cc(C)c(C)nc3OC)CC2)c1 [Example 132, 1-[N-(5,6-Dimethyl-2-methoxypyridin-3-yl)-N-methylaminocarbonyl]-4-(3,5-dimethoxyphenyl)piperazine] | 40 ng/mL (≈ 96.5 nM) | 10 ng/mL (≈ 24.1 nM) | 30 ng/mL (≈ 72.4 nM) | 30 ng/mL (≈ 72.4 nM) | 40 ng/mL (≈ 96.5 nM) | –
3 | CCN(C(=O)N1CCN(c2cc(OC)cc(OC)c2)CC1)c1cc(C)c(C)nc1OC [Example 133, 1-[N-Ethyl-N-(5,6-dimethyl-2-methoxypyridin-3-yl)aminocarbonyl]-4-(3,5-dimethoxyphenyl)piperazine] | 610 ng/mL (≈ 1420 nM) | 940 ng/mL (≈ 2190 nM) | 530 ng/mL (≈ 1240 nM) | 570 ng/mL (≈ 1330 nM) | 570 ng/mL (≈ 1330 nM) | –
4 | COc1ccc(C)c(N2CCN(C(=O)N(C)c3cc(C)c(C)nc3OC)CC2)c1 [Example 140, 1-[N-(5,6-Dimethyl-2-methoxypyridin-3-yl)-N-methylaminocarbonyl]-4-(5-methoxy-2-methylphenyl)piperazine] | 540 ng/mL (≈ 1360 nM) | 470 ng/mL (≈ 1180 nM) | 560 ng/mL (≈ 1410 nM) | 330 ng/mL (≈ 828 nM) | 490 ng/mL (≈ 1230 nM) | –
5 | CCc1nc(OC)c(N(C)C(=O)N2CCN(c3cc(OC)cc(OC)c3)CC2)cc1C [Example 147, 1-[N-(6-Ethyl-2-methoxy-5-methylpyridin-3-yl)-N-methylaminocarbonyl]-4-(3,5-dimethoxyphenyl)piperazine] | 466 ng/mL (≈ 1090 nM) | 92 ng/mL (≈ 215 nM) | – | 31 ng/mL (≈ 72.3 nM) | 180 ng/mL (≈ 420 nM) | 24 ng/mL (≈ 56 nM)
6 | CCCc1nc(OC)c(N(C)C(=O)N2CCN(c3cc(OC)cc(OC)c3)CC2)cc1C [Example 148, 1-[N-(2-Methoxy-5-methyl-6-propylpyridin-3-yl)-N-methylaminocarbonyl]-4-(3,5-dimethoxyphenyl)piperazine] | 50 ng/mL (≈ 113 nM) | 70 ng/mL (≈ 158 nM) | 30 ng/mL (≈ 67.8 nM) | 10 ng/mL (≈ 22.6 nM) | 50 ng/mL (≈ 113 nM) | –
7 | CCC(C)(O)c1cc(N(C)C(=O)N2CCN(c3cc(C)cc(C)c3)CC2)c(OC)nc1C (stereo not shown) [Example 156, 1-{N-[5-(1-Hydroxy-1-methylpropyl)-2-methoxy-6-methylpyridin-3-yl]-N-methylaminocarbonyl}-4-(3,5-dimethylphenyl)piperazine] | 60 ng/mL (≈ 136 nM) | 100 ng/mL (≈ 227 nM) | 90 ng/mL (≈ 204 nM) | 60 ng/mL (≈ 136 nM) | 70 ng/mL (≈ 159 nM) | –
8 | C=Cc1cc(N(C)C(=O)N2CCN(c3cc(C)cc(C)c3)CC2)c(OC)nc1C [Example 159, 1-[N-(2-Methoxy-6-methyl-5-vinylpyridin-3-yl)-N-methylaminocarbonyl]-4-(3,5-dimethylphenyl)piperazine] | 210 ng/mL (≈ 532 nM) | 100 ng/mL (≈ 253 nM) | 70 ng/mL (≈ 177 nM) | 50 ng/mL (≈ 127 nM) | 170 ng/mL (≈ 431 nM) | –
9 | COc1cc(C)c(C)cc1NC(=O)N1CCN(c2cccc(Cl)c2)CC1 [Example 177, 1-[(4,5-Dimethyl-2-methoxyphenyl)aminocarbonyl]-4-(3-chlorophenyl)piperazine] | 120 ng/mL (≈ 321 nM) | 390 ng/mL (≈ 1040 nM) | 170 ng/mL (≈ 455 nM) | 520 ng/mL (≈ 1390 nM) | 90 ng/mL (≈ 241 nM) | –
10 | COc1cc(C)c(C)cc1NC(=O)N1CCN(c2cccc(O)c2)CC1 [Example 179, 1-[(4,5-Dimethyl-2-methoxyphenyl)aminocarbonyl]-4-(3-hydroxylphenyl)piperazine] | 740 ng/mL (≈ 2080 nM) | 980 ng/mL (≈ 2760 nM) | 720 ng/mL (≈ 2030 nM) | 1040 ng/mL (≈ 2930 nM) | 630 ng/mL (≈ 1770 nM) | –
11 | COc1cc(C)c(C)cc1NC(=O)N1CCN(c2ccccc2OC)CC1 [Example 183, 1-[(4,5-Dimethyl-2-methoxyphenyl)aminocarbonyl]-4-(2-methoxyphenyl)piperazine] | 1410 ng/mL (≈ 3820 nM) | 2270 ng/mL (≈ 6140 nM) | 1170 ng/mL (≈ 3170 nM) | 420 ng/mL (≈ 1140 nM) | 2090 ng/mL (≈ 5660 nM) | –
12 | COc1cc(OC)cc(N2CCN(C(=O)N(C)c3cc(C)c(C)cc3OC)CC2)c1 [Example 190, 1-[N-(4,5-Dimethyl-2-methoxyphenyl)-N-methylaminocarbonyl]-4-(3,5-dimethoxyphenyl)piperazine] | 443 ng/mL (≈ 1070 nM) | 8 ng/mL (≈ 19.3 nM) | 2 ng/mL (≈ 4.84 nM) | 4 ng/mL (≈ 9.67 nM) | 17 ng/mL (≈ 41.1 nM) | –
13 | COc1cc(C)c(C)cc1N(C)C(=O)N1CCN(c2cc(C)cc(C)c2)CC1 [Example 191, 1-[N-(4,5-Dimethyl-2-methoxyphenyl)-N-methylaminocarbonyl]-4-(3,5-dimethylphenyl)piperazine] | 470 ng/mL (≈ 1230 nM) | 280 ng/mL (≈ 734 nM) | 60 ng/mL (≈ 157 nM) | 90 ng/mL (≈ 236 nM) | 400 ng/mL (≈ 1050 nM) | –

More lines, main results first:

Row | IC50 [1] | IC50 [2] | IC50 [3, 6] | IC50 [4] | IC50 [5] | Compound | IC50 ([3]; SK-MEL-2, 48 h, read-out: ED50)
14 | 2 ng/mL (≈ 4.52 nM) | 9.1 ng/mL (≈ 20.6 nM) | 8.6 ng/mL (≈ 19.4 nM) | 0.9 ng/mL (≈ 2.03 nM) | 6.5 ng/mL (≈ 14.7 nM) | COc1cc(OC)cc(N2CCN(C(=O)N(c3cc(C)c(C)nc3OC)C(C)C)CC2)c1 [Example 134, 1-[N-Isopropyl-N-(5,6-dimethyl-2-methoxypyridin-3-yl)aminocarbonyl]-4-(3,5-dimethoxyphenyl)piperazine] | –
15 | 26 ng/mL (≈ 54.8 nM) | 11 ng/mL (≈ 23.2 nM) | 21 ng/mL (≈ 44.2 nM) | 15 ng/mL (≈ 31.6 nM) | 17 ng/mL (≈ 35.8 nM) | COc1ccc(C)c(N2CCN(C(=O)N(Cc3ccccc3)c3cc(C)c(C)nc3OC)CC2)c1 [Example 142, 1-[N-Benzyl-N-(5,6-dimethyl-2-methoxypyridin-3-yl)aminocarbonyl]-4-(5-methoxy-2-methylphenyl)piperazine] | –
16 | 0.9 ng/mL (≈ 2.1 nM) | 9.5 ng/mL (≈ 22.2 nM) | 12.1 ng/mL (≈ 28.2 nM) | 0.4 ng/mL (≈ 0.933 nM) | 10.8 ng/mL (≈ 25.2 nM) | CCc1cc(N(C)C(=O)N2CCN(c3cc(OC)cc(OC)c3)CC2)c(OC)nc1C [Example 143, 1-[N-(5-Ethyl-2-methoxy-6-methylpyridin-3-yl)-N-methylaminocarbonyl]-4-(3,5-dimethoxyphenyl)piperazine] | –
17 | 7 ng/mL (≈ 17.1 nM) | 8 ng/mL (≈ 19.5 nM) | 7 ng/mL (≈ 17.1 nM) | 4 ng/mL (≈ 9.74 nM) | 37 ng/mL (≈ 90.1 nM) | COc1nc(C)c(C(C)=O)cc1N(C)C(=O)N1CCN(c2cc(C)cc(C)c2)CC1 [Example 151, 1-[N-(5-Acetyl-2-methoxy-6-methylpyridin-3-yl)-N-methylaminocarbonyl]-4-(3,5-dimethylphenyl)piperazine] | –
18 | 260 ng/mL (≈ 585 nM) | 370 ng/mL (≈ 832 nM) | 200 ng/mL (≈ 450 nM) | 180 ng/mL (≈ 405 nM) | 440 ng/mL (≈ 990 nM) | COc1cc(OC)cc(N2CCN(C(=O)N(C)c3cc(C(C)O)c(C)nc3OC)CC2)c1 (stereo not shown) [Example 152, 1-{N-[5-(1-Hydroxyethyl)-2-methoxy-6-methylpyridin-3-yl]-N-methylaminocarbonyl}-4-(3,5-dimethoxyphenyl)piperazine] | –
19 | 0.245 ng/mL (≈ 0.534 nM) | 0.002 ng/mL (≈ 0.00436 nM) | 0.043 ng/mL (≈ 0.0938 nM) | 0.002 ng/mL (≈ 0.00436 nM) | 0.211 ng/mL (≈ 0.46 nM) | COc1cc(OC)cc(N2CCN(C(=O)N(C)c3cc(C(C)OC)c(C)nc3OC)CC2)c1 (stereo not shown) [Example 157, 1-{N-[2-Methoxy-5-(1-methoxyethyl)-6-methylpyridin-3-yl]-N-methylaminocarbonyl}-4-(3,5-dimethoxyphenyl)piperazine] | –
20 | 490 ng/mL (≈ 1240 nM) | 560 ng/mL (≈ 1420 nM) | 270 ng/mL (≈ 683 nM) | 540 ng/mL (≈ 1370 nM) | 330 ng/mL (≈ 834 nM) | COc1cc(C)c(C)cc1NC(=O)N1CCN(c2c(C)c(C)cc(C)c2C)CC1 [Example 174, 1-[(4,5-Dimethyl-2-methoxyphenyl)aminocarbonyl]-4-(2,3,5,6-tetramethylphenyl)piperazine] | –
